Data reported in article PMC7462607 (eLife, 2020).
Where “and” joins values, the source holds several entries; their conditions need not be identical. Equal values may be shown once. Read-outs that look alike come from different tables or passages of the source.

What was measured:
HCT-116 cells = assay: Cell viability assay, parental HCT-116 and HQ461-resistant HCT-116 clones; assay type: cell-based, Homo sapiens; settings: for CellTiter-Glo (ATP): raw signal, listed as 0461; for IC50: Homo sapiens, HCT-116
Protocol: (§1) Seven hundred A549 cells or 1,000 HCT-116 cells in 50 µL of medium were plated per well in 384-well flat clear bottom white polystyrene TC-treated microplates (Corning, Corning, USA). After overnight attachment, cells were dosed with a serial dilution of HQ461 with a D300e digital dispenser (Tecan, Männedorf, Switzerland). Cell survival was measured 72 hr later using CellTiter-Glo luminescent cell viability assay kit (Promega, Madison, USA) following vendor instructions. Luminescence was recorded by EnVison multimode plate reader (PerkinElmer, Waltham, USA). IC50 was determined with GraphPad Prism using baseline correction (by normalizing to DMSO control), the asymmetric (five parameter) equation, and least squares fit.
Parental HCT-116 were plated sparsely on 10 cm plates to allow the isolation of ten individual clones. Each of these ten clones were expanded to one confluent 15 cm plate to establish ten independent cell populations. One million cells from each population were then plated on one 10 cm plate and treated with 20 µM HQ461 continuously for two weeks, with media change every 3 to 4 days. HQ461 resistant clones emerged from 5 out of the 10 populations. These clones were isolated, expanded, and tested for their sensitivity to HQ461 using cell viability assay. Five HQ461-resistant clones selected from independent populations were subjected to genomic DNA isolation as described in the previous session. Their genomic DNAs were then pooled in equal amounts for whole-exome sequencing at 200x average coverage (Novogene, Beijing, China). As a control, genomic DNAs isolated from the corresponding cell populations before HQ461 selection were also pooled for whole-exome sequencing. Raw sequencing data have been deposited to NCBI GEO (GSE153707).

[1] = test system: CDK12 G731E or G731R knock-in A549 cells; assay: Cell viability assay, CDK12 G731E or G731R knock-in A549 cells; assay type: cell-based; settings: Homo sapiens, four knock-in clones
Protocol: as §1
An sgRNA targeting CDK12 (5’-[…]-3’) was cloned into the pSpCas9(BB)−2A-eGFP (PX458) vector (Addgene 48138). For CDK12 G731E/R knock-in, 1 million A549 cells were nucleofected (using 4D-Nucleofector, Lonza, Basel, Switzerland) with PX458-sgCDK12 and single-stranded oligodeoxynucleotides (G731E: 5’-ttatatacttggccataggttccttctccaataatTTCaataatgtcaaacttgtccacacagcgtttcccccagtc-3’; G731R: 5’-ttatatacttggccataggttccttctccaataatGCGaataatgtcaaacttgtccacacagcgtttcccccagtc-3’). Afterwards, cells were exposed to 5 µM 0461 for 2 weeks to select for cells with CDK12 G731E/R knock-in. […]

CDK12KD/CCNKΔC = target: T1, CDK12KD/CCNKΔC (Homo sapiens, UniProt Q9NYV4); assay: Differential Scanning Fluorimetry (DSF), CDK12KD/CCNKΔC; assay type: binding; settings: 50 µM HQ461, Sypro Orange; read-out: increase in melting temperature (Tm) of CDK12KD/CCNKΔC
T1 construct: Human CDK12KD (residues 715–1052); 6xHis (PreScission site) (N, cleaved yes); made in house; host or cells: Sf9 or High Five, co-infected with yeast CAK1
T1 sequence (Q9NYV4 715-1052, stated change not applied): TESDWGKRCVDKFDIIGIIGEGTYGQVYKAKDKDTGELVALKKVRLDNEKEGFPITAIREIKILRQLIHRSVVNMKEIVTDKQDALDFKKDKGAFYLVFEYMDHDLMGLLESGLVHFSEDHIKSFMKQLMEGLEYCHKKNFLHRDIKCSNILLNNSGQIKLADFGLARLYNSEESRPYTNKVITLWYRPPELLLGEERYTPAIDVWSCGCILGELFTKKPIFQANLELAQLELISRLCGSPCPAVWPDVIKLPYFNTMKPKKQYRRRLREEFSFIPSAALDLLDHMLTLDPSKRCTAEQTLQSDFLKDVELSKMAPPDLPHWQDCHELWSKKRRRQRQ
T1 sequence (O75909 11-267 partner limits assumed): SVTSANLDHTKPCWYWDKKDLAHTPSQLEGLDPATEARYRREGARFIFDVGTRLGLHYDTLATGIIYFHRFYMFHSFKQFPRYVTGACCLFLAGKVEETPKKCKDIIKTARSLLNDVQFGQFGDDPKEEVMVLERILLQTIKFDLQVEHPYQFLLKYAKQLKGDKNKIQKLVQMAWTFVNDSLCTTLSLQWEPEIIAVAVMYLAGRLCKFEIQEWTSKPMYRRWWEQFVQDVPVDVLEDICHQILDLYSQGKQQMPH
Protocol: CDK12KD/CCNKΔC (WT or G731E/R) and DDB1ΔBPB were diluted to 5 μM with DSF assay buffer (50 mM HEPES pH 7.5, 300 mM NaCl, 0.5 mM TCEP). 50 µM HQ461 or 10 µM HBx was added to diluted proteins (final DMSO concentration 0.25%). Twenty µL of protein-compound mix was aliquoted per qPCR tube (Labtidebiotech, Shanghai, China, P01-0803E) followed by the addition of 5 µL of 1:400 diluted SYPRO Orange (Sigma-Aldrich, MO, USA, S5692). After incubation on ice for 20 min, fluorescence measurements were performed using a Bio-Rad CFX96 Realtime PCR instrument. During the DSF experiment, the temperature was increased from 10°C to 95°C at an increment of 0.5 °C with equilibration time of 10 s at each temperature prior to measurement. Tm was defined as the temperature corresponding to the maximum value of the first derivative of fluorescence transition.

[2] = test system: CDK12KD/CCNKΔC (WT or G731E/R); assay: Nano DSF; assay type: binding, human; settings: increasing concentrations of HQ461
Protocol: CDK12KD/CCNKΔC (WT or G731E/R) or DDB1ΔBPB were diluted with DSF assay buffer (50 mM HEPES pH 7.5, 300 mM NaCl, 0.5 mM TCEP) to 3.6 µM and mixed with diluted HQ461 (final DMSO concentration 2%). Tryptophan fluorescence was measured using Tycho NT.6 (NanoTemper, South San Francisco, USA). During the thermal shift experiment, temperature was increased from 35°C to 95°C and fluorescence was scanned at 350 nm and 330 nm. Ti (inflection temperature of the unfolding transition) was calculated from the 350 nm/330 nm ratio.

SMILES: Cc1cccc(Nc2nc(CC(=O)Nc3ncc(C)s3)cs2)n1 [HQ461, 2-(2-((6-methylpyridin-2-yl)amino)thiazol-4-yl)-N-(5-methylthiazol-2-yl)acetamide]
- CellTiter-Glo (ATP) (HCT-116 cells; HCT-116 Parental, 1.43856e-6 M): 1.76E+06 and 1.77E+06 and 2.14E+06 and 2.07E+06
- CellTiter-Glo (ATP) (HCT-116 cells; HCT-116 Parental, 1.85257e-5 M): 147560 and 197570
- CellTiter-Glo (ATP) (HCT-116 cells; HCT-116 Parental, 1.91632e-5 M): 303300 and 182560
- CellTiter-Glo (ATP) (HCT-116 cells; HCT-116 Parental, 3.09439e-5 M): 96830 and 121990
- CellTiter-Glo (ATP) (HCT-116 cells; HCT-116 Parental, 3.21364e-5 M): 122490 and 116460
- CellTiter-Glo (ATP) (HCT-116 cells; HCT-116 Parental, 5.00E-07 M): 1.93E+06 and 2.16E+06
- CellTiter-Glo (ATP) (HCT-116 cells; HCT-116 Parental, 5.19E-07 M): 1.68E+06 and 1.79E+06
- CellTiter-Glo (ATP) (HCT-116 cells; HCT-116 Parental, 7.99E-07 M): 2.18E+06 and 1.85E+06
- CellTiter-Glo (ATP) (HCT-116 cells; HCT-116 Parental, 8.79E-07 M): 1.85E+06 and 1.84E+06
- CellTiter-Glo (ATP) (HCT-116 cells; HCT-116 resistant clone 2R, 1.27872e-6 M): 1.68E+06 and 1.80E+06
- CellTiter-Glo (ATP) (HCT-116 cells; HCT-116 resistant clone 2R, 1.35864e-6 M): 1.87E+06 and 1.72E+06
- CellTiter-Glo (ATP) (HCT-116 cells; HCT-116 resistant clone 2R, 1.71705e-5 M): 742920 and 664400
- CellTiter-Glo (ATP) (HCT-116 cells; HCT-116 resistant clone 2R, 1.78082e-5 M): 650900 and 675880
- CellTiter-Glo (ATP) (HCT-116 cells; HCT-116 resistant clone 2R, 2.87969e-5 M): 418620 and 384180
- CellTiter-Glo (ATP) (HCT-116 cells; HCT-116 resistant clone 2R, 2.98307e-5 M): 380430 and 316510
- CellTiter-Glo (ATP) (HCT-116 cells; HCT-116 resistant clone 2R, 7.99E-07 M): 1.71E+06 and 1.76E+06 and 1.66E+06 and 1.65E+06
- CellTiter-Glo (ATP) (HCT-116 cells; HCT-116 resistant clone 5R, 1.1988e-6 M): 1.40E+06 and 1.72E+06
- CellTiter-Glo (ATP) (HCT-116 cells; HCT-116 resistant clone 5R, 1.27872e-6 M): 1.47E+06 and 1.50E+06
- CellTiter-Glo (ATP) (HCT-116 cells; HCT-116 resistant clone 5R, 1.59745e-5 M): 708690 and 643890
- CellTiter-Glo (ATP) (HCT-116 cells; HCT-116 resistant clone 5R, 1.65326e-5 M): 713930 and 686510
- CellTiter-Glo (ATP) (HCT-116 cells; HCT-116 resistant clone 5R, 2.67284e-5 M): 402240 and 357240
- CellTiter-Glo (ATP) (HCT-116 cells; HCT-116 resistant clone 5R, 2.77628e-5 M): 421400 and 366190
- CellTiter-Glo (ATP) (HCT-116 cells; HCT-116 resistant clone 5R, 7.19E-07 M): 1.56E+06 and 1.54E+06 and 1.42E+06 and 1.57E+06
- CellTiter-Glo (ATP) (HCT-116 cells; HCT-116 resistant clone 6R, 1.11888e-6 M): 1.62E+06 and 1.45E+06
- CellTiter-Glo (ATP) (HCT-116 cells; HCT-116 resistant clone 6R, 1.1988e-6 M): 1.35E+06 and 1.55E+06
- CellTiter-Glo (ATP) (HCT-116 cells; HCT-116 resistant clone 6R, 1.48579e-5 M): 838610 and 815000
- CellTiter-Glo (ATP) (HCT-116 cells; HCT-116 resistant clone 6R, 1.54163e-5 M): 808740 and 730030
- CellTiter-Glo (ATP) (HCT-116 cells; HCT-116 resistant clone 6R, 2.48182e-5 M): 327830 and 270480
- CellTiter-Glo (ATP) (HCT-116 cells; HCT-116 resistant clone 6R, 2.57734e-5 M): 314810 and 296570
- CellTiter-Glo (ATP) (HCT-116 cells; HCT-116 resistant clone 6R, 6.71E-07 M): 1.36E+06 and 1.56E+06
- CellTiter-Glo (ATP) (HCT-116 cells; HCT-116 resistant clone 6R, 6.95E-07 M): 1.61E+06 and 1.53E+06
- CellTiter-Glo (ATP) (HCT-116 cells; HCT-116 resistant clone 8R, 1.03896e-6 M): 1.50E+06 and 1.58E+06
- CellTiter-Glo (ATP) (HCT-116 cells; HCT-116 resistant clone 8R, 1.11888e-6 M): 1.51E+06 and 1.63E+06
- CellTiter-Glo (ATP) (HCT-116 cells; HCT-116 resistant clone 8R, 1.42995e-5 M): 543300 and 1.00E+06
- CellTiter-Glo (ATP) (HCT-116 cells; HCT-116 resistant clone 8R, 2.30667e-5 M): 427880 and 390970
- CellTiter-Glo (ATP) (HCT-116 cells; HCT-116 resistant clone 8R, 2.39426e-5 M): 409850 and 403510
- CellTiter-Glo (ATP) (HCT-116 cells; HCT-116 resistant clone 8R, 4.00787e-5 M): 298050 and 276140
- CellTiter-Glo (ATP) (HCT-116 cells; HCT-116 resistant clone 8R, 6.23E-07 M): 1.45E+06 and 1.63E+06
- CellTiter-Glo (ATP) (HCT-116 cells; HCT-116 resistant clone 8R, 6.47E-07 M): 1.55E+06 and 1.60E+06
- CellTiter-Glo (ATP) (HCT-116 cells; HCT-116 resistant clone 9R, 1.03896e-6 M): 288440 and 333120
- CellTiter-Glo (ATP) (HCT-116 cells; HCT-116 resistant clone 9R, 2.13941e-5 M): 65580 and 36800
- CellTiter-Glo (ATP) (HCT-116 cells; HCT-116 resistant clone 9R, 2.22704e-5 M): 50040 and 30190
- CellTiter-Glo (ATP) (HCT-116 cells; HCT-116 resistant clone 9R, 3.58708e-5 M): 46680 and 23830
- CellTiter-Glo (ATP) (HCT-116 cells; HCT-116 resistant clone 9R, 3.72209e-5 M): 43970 and 22740
- CellTiter-Glo (ATP) (HCT-116 cells; HCT-116 resistant clone 9R, 5.79E-07 M): 315200 and 382800
- CellTiter-Glo (ATP) (HCT-116 cells; HCT-116 resistant clone 9R, 5.99E-07 M): 335950 and 324000
- CellTiter-Glo (ATP) (HCT-116 cells; HCT-116 resistant clone 9R, 9.59E-07 M): 277130 and 355980
- increase of IC50 relative to parental HCT-116 cells (HCT-116 cells; HQ461-resistant HCT-116 clones): three-fold
- IC50 (HCT-116 cells; five HQ461-resistant clones, read-out: IC50 on the viability of five HQ461-resistant HCT-116 clones): 13 to 14.3 µM
- IC50 (HCT-116 cells; read-out: IC50 on the viability of parental HCT-116): 4.6 µM
- IC50 [1]: 25.2 to 36.5 µM
- ΔTm at 50 µM (CDK12KD/CCNKΔC): 1.4 °C
- Tm of CDK12KD/CCNKΔC wild type or G731E/R mutants [2]: increased in an HQ461 concentration-dependent manner
